Biological target: T1, Protein deacetylase HDAC6 (Homo sapiens) (UniProt Q9UBN7)
T1 sequence (whole entry): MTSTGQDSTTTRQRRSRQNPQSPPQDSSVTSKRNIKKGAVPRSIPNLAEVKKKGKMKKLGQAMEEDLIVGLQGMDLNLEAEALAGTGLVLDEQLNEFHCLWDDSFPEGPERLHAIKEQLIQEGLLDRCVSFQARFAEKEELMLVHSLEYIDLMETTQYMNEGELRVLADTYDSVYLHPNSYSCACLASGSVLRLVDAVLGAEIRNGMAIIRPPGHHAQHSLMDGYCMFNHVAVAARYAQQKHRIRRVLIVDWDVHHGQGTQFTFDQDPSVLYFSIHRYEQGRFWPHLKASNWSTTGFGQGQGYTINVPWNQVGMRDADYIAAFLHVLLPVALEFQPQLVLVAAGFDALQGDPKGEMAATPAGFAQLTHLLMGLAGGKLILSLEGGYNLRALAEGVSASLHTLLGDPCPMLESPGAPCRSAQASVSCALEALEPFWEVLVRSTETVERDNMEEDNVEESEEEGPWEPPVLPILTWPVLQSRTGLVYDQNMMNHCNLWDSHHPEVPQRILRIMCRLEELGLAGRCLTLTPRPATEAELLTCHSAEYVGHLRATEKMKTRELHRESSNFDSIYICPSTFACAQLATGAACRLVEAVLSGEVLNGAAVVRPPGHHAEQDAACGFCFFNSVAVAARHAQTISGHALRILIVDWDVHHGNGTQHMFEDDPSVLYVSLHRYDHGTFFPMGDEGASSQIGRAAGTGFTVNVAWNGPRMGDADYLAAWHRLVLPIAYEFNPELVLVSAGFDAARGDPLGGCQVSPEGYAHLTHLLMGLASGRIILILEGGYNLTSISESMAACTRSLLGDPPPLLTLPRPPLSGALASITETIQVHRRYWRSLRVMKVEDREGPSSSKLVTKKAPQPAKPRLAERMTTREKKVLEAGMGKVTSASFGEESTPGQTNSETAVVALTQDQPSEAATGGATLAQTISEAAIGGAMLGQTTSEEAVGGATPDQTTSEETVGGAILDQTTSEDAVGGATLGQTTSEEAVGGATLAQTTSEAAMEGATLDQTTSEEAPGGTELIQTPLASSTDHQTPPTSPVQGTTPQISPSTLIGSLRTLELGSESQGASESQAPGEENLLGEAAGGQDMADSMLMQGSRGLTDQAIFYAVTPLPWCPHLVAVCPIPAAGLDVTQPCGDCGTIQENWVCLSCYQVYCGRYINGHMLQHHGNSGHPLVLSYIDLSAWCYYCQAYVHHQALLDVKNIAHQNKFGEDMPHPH
Test: Inhibition of full length HDAC6 (unknown origin) extracted from Sf9 insect cells at 10 uM preincubated for 60 mins followed by substrate addition and measured after 20 mins by luminescence based HDAC-GloTM I/II assay relative to control
Assay type: cell-free
Details: time 80.0 min

| Structure (SMILES) | inhibition |
| --- | --- |
| O=C1c2cc(-c3nnc(C(F)F)o3)ccc2CN1[C@H](C1CC1)[C@@H](O)c1ncccn1 | 96% |
| O=C1c2cc(-c3nnc(C(F)F)o3)ccc2CN1[C@H](C1CC1)[C@@H](O)c1cccc(F)c1 | 100% |
| O=C1c2cc(-c3nnc(C(F)F)o3)ccc2CN1[C@H](C1CC1)[C@@H](O)c1ccccn1 | 100% |
| O=C1c2cc(-c3nnc(C(F)F)o3)ccc2CN1[C@H](c1cnccn1)[C@@H](O)c1cccc(Cl)c1 | 100% |
| O=C1c2cc(-c3nnc(C(F)F)o3)ccc2CN1[C@H](c1ccccn1)[C@@H](O)c1ccccn1 | 101% |
| O=C1c2cc(-c3nnc(C(F)F)o3)ccc2CN1[C@H](c1ccccn1)[C@@H](O)c1ccc(C(F)(F)F)cn1 | 99% |
| O=C1c2cc(-c3nnc(C(F)F)o3)ccc2CN1[C@H](c1cccnn1)[C@@H](O)c1cccc(Cl)c1 | 101% |
| O=C1c2cc(-c3nnc(C(F)F)o3)ccc2CN1[C@H](C1CC1)[C@@H](O)c1ccc(F)cn1 | 100% |
| O=C1c2cc(-c3nnc(C(F)F)o3)ccc2CN1[C@@H](c1ccccn1)[C@H](O)c1ccccn1 | 100% |

Other lines, results leading:

| inhibition | Structure (SMILES) |
| --- | --- |
| 99% | O=C1c2cc(-c3nnc(C(F)F)o3)ccc2CN1[C@H](c1ccc(F)c(F)c1)[C@@H](O)c1ccccn1 |
| 100% | O=C1c2cc(-c3nnc(C(F)F)o3)ccc2CN1[C@H](C1CCC(F)(F)CC1)[C@@H](O)c1ccc(F)nc1 (racemic) |
| 99% | O=C1c2cc(-c3nnc(C(F)F)o3)ccc2CN1[C@H](c1ccc(F)cc1)[C@@H](O)c1ccc(F)nc1 |
| 99% | O=C1c2cc(-c3nnc(C(F)F)o3)ccc2CN1[C@H](c1ccc(F)cc1)[C@@H](O)C1CCOCC1 (racemic) |
| 100% | O=C1c2cc(-c3nnc(C(F)F)o3)ccc2CN1[C@H](c1cccc(F)c1)[C@@H](O)c1ccccn1 (racemic) |

Source: ChEMBL document CHEMBL6153156, “Potential of Histone Deacetylase 6 Inhibitors as a Treatment of Neurodegenerative Diseases” (ACS Med Chem Lett, 2025)
